According to US20130295692A1, “MEANS AND METHODS FOR PREDICTING DIABETES” (METANOMICS HEALTH GMBH, priority 2010, published 2013):
Structures can show the parent of a compound that is named as a salt.

Tested on: healthy rat plasma glyoxylate concentrations
Assay: Rats treated with anti-diabetic drug metformin: 28-day oral gavage study, plasma metabolite profiling of glyoxylate
Type: in vivo
Conditions: for Ratio treatment/control of plasma glyoxylate: fasted plasma
Procedure: Two groups of each 5 male and female rats was dosed once daily with the indicated compounds with a different dose per group (see below) over 28 days.
Each dose group in the studies consisted of five rats per sex. Additional groups of each 15 male and 15 female animals served as controls. Before starting the treatment period, animals, which were 62-64 days old when supplied, were acclimatized to the housing and environmental conditions for 7 days. All animals of the animal population were kept under the same constant temperature (20-24±3° C.) and the same constant humidity (30-70%). The animals of the animal population were fed ad libitum. The food to be used was essentially free of chemical or microbial contaminants. Drinking water was also offered ad libitum. Accordingly, the water was free of chemical and microbial contaminants as laid down in the European Drinking Water Directive 98/83/EG. The illumination period was 12 hours light followed by 12 hours darkness (12 hours light, from 6:00 to 18:00, and 12 hours darkness, from 18:00 to 6:00). The studies were performed in an AAALAC-approved laboratory in accordance with the German Animal Welfare Act and the European Council Directive 86/609/EE. The test system was arranged according to the OECD 407 guideline for the testing of chemicals for repeated dose 28-day oral toxicity study in rodents. The test substance was dosed and administered as follows:
Metformin hydrochloride was administered by gavage (high dose group at 1 g/kg body weight, low dose group at 0.2 g/kg body weight), in drinking water containing 0.5% Carboxymethyl cellulose (Tylose CB30000) (administration volume: 10 ml/kg body weight).
In the morning of day 7, 14, and 28, blood was taken from the retroorbital venous plexus from fasted anaesthetized animals. From each animal, 1 ml of blood was collected with EDTA as anticoagulant. The samples were centrifuged for generation of plasma. All plasma samples were covered with a N2 atmosphere and then stored at −80° C. until analysis.
For mass spectrometry-based metabolite profiling analyses plasma samples were extracted and a polar and a non-polar (lipid) fraction was obtained. For GC-MS analysis, the non-polar fraction was treated with methanol under acidic conditions to yield the fatty acid methyl esters. Both fractions were further derivatised with O-methyl-hydroxyamine hydrochloride and pyridine to convert Oxo-groups to O-methyloximes and subsequently with a silylating agent before analysis. In LC-MS analysis, both fractions were reconstituted in appropriate solvent mixtures. HPLC was performed by gradient elution on reversed phase separation columns. Mass spectrometric detection which allows target and high sensitivity MRM (Multiple Reaction Monitoring) profiling in parallel to a full screen analysis was applied as described in WO2003073464.
Following comprehensive analytical validation steps, the data for each analyte were normalized against data from pool samples. These samples were run in parallel through the whole process to account for process variability. The significance of treatment group values specific for sex, treatment duration and metabolite was determined by comparing means of the treated groups to the means of the respective untreated control groups using WELCH-test and quantified with treatment ratios versus control and p-values.

CN(C)C(=N)NC(=N)N [Metformin hydrochloride, N,N-dimethylimidodicarbonimidic diamide]
Ratio treatment/control of plasma glyoxylate (High Dose 1 g/kg body weight by gavage once daily, female rats, day 7 (f7)): 0.82 | Ratio treatment/control of plasma glyoxylate (High Dose 1 g/kg body weight by gavage once daily, female rats, day 14 (f14)): 0.58 | Ratio treatment/control of plasma glyoxylate (High Dose 1 g/kg body weight by gavage once daily, female rats, day 28 (f28)): 0.52 | Ratio treatment/control of plasma glyoxylate (High Dose 1 g/kg body weight by gavage once daily, male rats, day 7 (m7)): 0.22 | Ratio treatment/control of plasma glyoxylate (High Dose 1 g/kg body weight by gavage once daily, male rats, day 14 (m14)): 0.29 | Ratio treatment/control of plasma glyoxylate (High Dose 1 g/kg body weight by gavage once daily, male rats, day 28 (m28)): 0.58 | Ratio treatment/control of plasma glyoxylate (Low Dose 0.2 g/kg body weight by gavage once daily, female rats, day 7 (f7)): 1.01 | Ratio treatment/control of plasma glyoxylate (Low Dose 0.2 g/kg body weight by gavage once daily, female rats, day 14 (f14)): 0.72 | Ratio treatment/control of plasma glyoxylate (Low Dose 0.2 g/kg body weight by gavage once daily, female rats, day 28 (f28)): 0.64 | Ratio treatment/control of plasma glyoxylate (Low Dose 0.2 g/kg body weight by gavage once daily, male rats, day 7 (m7)): 0.59 | Ratio treatment/control of plasma glyoxylate (Low Dose 0.2 g/kg body weight by gavage once daily, male rats, day 14 (m14)): 0.65 | Ratio treatment/control of plasma glyoxylate (Low Dose 0.2 g/kg body weight by gavage once daily, male rats, day 28 (m28)): 0.44 | Effect on glyoxylate concentrations in rat model system (summary in words) (rat model system, summary of Table 8): capable of reducing glyoxylate concentrations
